These results are taken from PubChem BioAssay (NCI).

What all share (test): NCI anticancer screen, dose series, 48 h
Experiment [1] concerns LOX IMVI melanoma.
For experiment [2], the system named is CAKI-1 renal.
In experiment [3] the test system is MCF7 breast.
The subject of experiment [4] is NCI-H522 lung.
For experiment [5], the system named is COLO 205 colon.
Experiment [6] relates to HS 578T breast.
Experiment [7] has as its system NCI-H23 lung.
The subject of experiment [8] is UO-31 renal.
For experiment [9], the system named is OVCAR-8 ovarian.
The subject of experiment [10] is EKVX NSCLC.

Molecules are shown by their SMILES. Where “and” joins values, the source holds several entries; their conditions need not be identical. Identical values can stand only once.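 Results reflect a 48-hour exposure of cells in 96-well plates to compound at five concentrations. The concentration for 50% growth inhibition is given as GI50. TGI is the concentration that stops growth completely.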

Turning to `NC(=O)c1cccc(Nc2nccc(Nc3cccc4[nH]ncc34)n2)c1`, the GI50 in [1] is 6.07 µM; in experiment [2], 14.6 µM; in experiment [3], 9.49 µM; in [4], 8.85 µM; in experiment [5] it was 5.5 µM; in experiment [6] it was 0.557 µM. Also, the GI50 in [7] is 17.1 µM; in experiment [8], 12.4 µM; in [9], 8.11 µM; in experiment [10], greater than 25 µM. Also, the TGI in experiment [1] is greater than 18.4 µM; in experiment [2] it was greater than 25 µM; in experiment [3] it was greater than 25 µM; in experiment [4], greater than 25 µM; in [5], 17.1 µM; in [6], 3.21 µM. In addition, the TGI in experiment [7], in experiment [8], in [9] and in experiment [10] was greater than 25 µM throughout.

On to `COc1ccccc1CNCCCN1C(=O)c2ccc3c4c(ccc(c24)C1=O)C(=O)N(CCCCNCCCN)C3=O`, for which the GI50 was 0.654 µM in [1]; 13.1 µM in experiment [2]; 0.472 µM in [3]; 1.46 µM in experiment [4]; 0.524 µM in [5]; 2.27 µM in experiment [6]. Further, the GI50 in [7] was 0.594 µM; in experiment [8], 3.5 µM; in experiment [9] it was 0.71 µM; in [10], 2 µM. The TGI in experiment [1] amounted to 1.69 µM; in experiment [2], 34.8 µM; in experiment [3] it was 1.35 µM; in experiment [4] it was 3.25 µM; in [5], 1.08 µM; in experiment [6], 8.2 µM. The TGI in experiment [7] worked out at 1.63 µM; in experiment [8] it was 14.4 µM; in experiment [9], 3.67 µM; in experiment [10] it was 5.75 µM.

In the case of `COc1ccc2c(c1)CC[C@H](O)/C2=C/c1cc(OC)c(OC)c(OC)c1`, the GI50 in experiment [1] was 0.207 µM; in experiment [2], 0.118 µM; in experiment [3], 0.0379 µM; in experiment [4], 0.0824 µM; in experiment [5] it was 0.106 µM; in experiment [6] it was 0.101 µM. Also, the GI50 in experiment [7] is 0.162 µM; in experiment [8], 0.222 µM; in experiment [9] it was 0.36 µM; in experiment [10] it was 1.21 µM. Further, the TGI in [1] is greater than 100 µM; in experiment [2], greater than 100 µM; in experiment [3], greater than 100 µM; in experiment [4], 6.16 µM; in [5], 0.639 µM; in experiment [6], greater than 100 µM. Further, the TGI in [7], in experiment [8], in [9] and in experiment [10] was greater than 100 µM throughout.

With `O=Cc1cccc2c1Oc1c(cccc1C(=O)O)S2`, the TGI in experiment [1] is greater than 100 µM; in experiment [2] it was greater than 100 µM; in [3] it was greater than 100 µM; in experiment [4], greater than 100 µM; in experiment [5] it was 55.6 µM; in experiment [6], greater than 100 µM. The TGI in [7], in [8], in experiment [9] and in experiment [10] was greater than 100 µM each time.

For the molecule `COC(=O)Cc1ccc(Oc2cnc3cc(F)c(F)cc3n2)cc1`, the GI50 in experiment [1], in experiment [2], in experiment [3], in experiment [4], in [5] and in experiment [6] was greater than 100 µM in each case. In addition, the GI50 is 68.4 µM in [7], greater than 100 µM in experiment [8], greater than 100 µM in experiment [9] and 94.3 µM in experiment [10]. The TGI in [1], in experiment [2], in experiment [3], in experiment [4], in experiment [5] and in [6] was greater than 100 µM each time. Besides, the TGI in experiment [7], in experiment [8], in experiment [9] and in experiment [10] was greater than 100 µM each time.

In the case of `Cc1cc(C)c(NC(=S)NC(=O)c2ccccc2)cc1C`, the TGI in [1], in [2], in [3], in experiment [4], in experiment [5] and in experiment [6] was greater than 100 µM in each case. The TGI in experiment [7], in [8], in experiment [9] and in experiment [10] was greater than 100 µM throughout.

In the case of `COc1cc(CNc2ccccc2C(=O)N2CCN(C(=O)c3cc(-c4cc(OC)c(OC)c(OC)c4)n4nc(-c5ccccc5)cc4n3)CC2)cc(OC)c1OC`, the GI50 in [1] was 4.86 µM; in experiment [2], 1.39 µM; in experiment [3] it was 3.01 µM; in [4], 2.22 µM; in experiment [5], 4.1 µM; in [6], 3.8 µM. The GI50 in experiment [7] was 4.96 µM; in experiment [8] it was 1.54 µM; in [9] it was 4.35 µM; in [10], 4.96 µM. The TGI in experiment [1] is greater than 100 µM; in [2] it was greater than 100 µM; in experiment [3] it was greater than 100 µM; in experiment [4], greater than 100 µM; in experiment [5], 15.4 µM; in experiment [6], greater than 100 µM. Moreover, the TGI in [7], in [8], in experiment [9] and in experiment [10] was greater than 100 µM in each case.

On to `COc1ccc2nc3cc([N+](=O)[O-])ccc3c(NCCCN(C)C)c2c1`, for which the GI50 in experiment [1] is 0.249 µM; in experiment [2], 1.24 µM; in [3] it was 0.0304 µM; in experiment [4], 0.0199 µM; in experiment [5], 0.221 µM; in experiment [6], 0.372 µM. The GI50 in [7] was 0.17 µM; in experiment [8], 1.63 µM; in experiment [9], 0.0895 µM; in experiment [10], 2.25 µM. Besides, the TGI in experiment [1] was 1.08 µM; in experiment [2], 3.83 µM; in experiment [3], 0.204 µM; in experiment [4] it was 0.0597 µM; in experiment [5] it was 2.17 µM; in experiment [6], 4.76 µM. In addition, the TGI in experiment [7] is 0.737 µM; in experiment [8], 6.1 µM; in experiment [9], 1.59 µM; in [10] it was 7.91 µM.

For `O=C1/C(=C\c2ccccn2)c2ccccc2N1c1c(Cl)cccc1Cl`, the GI50 in experiment [1] is 1.68 µM; in experiment [2], 1.83 µM; in [3] it was 2.41 µM; in [4], 1.98 µM; in [5] it was 2.04 µM; in experiment [6], 3.92 µM. The GI50 in experiment [7] is 3.29 µM; in experiment [8], 1.47 µM; in [9], 2.41 µM; in experiment [10], 3.47 µM. The TGI in [1] was found to be 3.21 µM; in [3], 14.3 µM; in [4], 4.81 µM; in experiment [5], 4.81 µM; in experiment [6], 37.4 µM; in experiment [7], 15.3 µM. In addition, the TGI was found to be 3.11 µM in experiment [8], 8.34 µM in [9] and 17.8 µM in [10].

Regarding `COc1ccc(-c2c3c(n(C4OC(COC(C)=O)C(OC(C)=O)C(OC(C)=O)C4OC(C)=O)c(=S)c2C#N)CC(C)(C)CC3=O)cc1` (centres undefined), the TGI in [1] was 97.5 µM and 77.2 µM; in [2], greater than 100 µM; in experiment [3] it was greater than 100 µM; in experiment [4], greater than 100 µM; in experiment [5], greater than 100 µM; in [6] it was greater than 100 µM. The TGI in experiment [7] is greater than 100 µM; in experiment [8] it was greater than 100 µM; in experiment [9], 75.4 µM and > 100 µM; in [10], 97.5 µM. In addition, the GI50 is 39.9 µM and > 100 µM in [7]; 22.1 µM and > 100 µM in experiment [9].

Consider `CNC(=O)Cc1nc(-c2cccc(NS(=O)(=O)c3c(F)cccc3F)c2F)c(-c2ccnc(Nc3ccccc3)n2)s1`, for which the GI50 in experiment [1] is 0.0917 µM; in experiment [2] it was 0.385 µM; in experiment [3], 19.1 µM; in experiment [4] it was 7.22 µM; in experiment [5], 0.0188 µM; in experiment [6], 0.482 µM. Also, the GI50 in [7] is 4.42 µM; in [8] it was 1.22 µM; in experiment [9] it was 7.32 µM; in experiment [10], 22.4 µM. Also, the TGI is 5.38 µM in experiment [1]; greater than 50 µM in experiment [2]; greater than 50 µM in experiment [3]; greater than 50 µM in experiment [4]; greater than 30.2 µM in [5]; 43.7 µM in experiment [6]. In addition, the TGI in experiment [7] was greater than 50 µM; in [8] it was 13.7 µM; in experiment [9], greater than 50 µM; in [10], greater than 50 µM.

Take `Nc1ccn(C2OC(COC(=O)C34CC5CC(CC(C5)C3)C4)C(O)C2O)c(=O)n1` (centres undefined): the TGI in experiment [1], in experiment [2], in experiment [3], in experiment [4], in experiment [5] and in experiment [6] was greater than 100 µM each time. In addition, the TGI in experiment [7], in experiment [8], in experiment [9] and in experiment [10] was greater than 100 µM throughout.

In the case of `Cc1ccc(S(=O)(=O)NNC(=O)c2cc(C)c(C)cc2N)cc1`, the TGI in experiment [1], in [2], in experiment [3], in experiment [4], in [5] and in experiment [6] was greater than 100 µM each time. In addition, the TGI in [7], in [8], in [9] and in experiment [10] was greater than 100 µM each time.

For `CN(Cc1cc(Cl)cc(Cl)c1)CC(C(=O)c1ccccc1)c1ccccc1` (centres undefined), the TGI in experiment [1] is 5.91 µM; in experiment [2], 9.07 µM; in experiment [3], greater than 44.1 µM; in experiment [4], 4.39 µM; in [5] it was 16.3 µM; in [6] it was greater than 57.7 µM. Further, the TGI in experiment [7] came out at 7.06 µM; in experiment [8], 19.9 µM; in [9], 21.2 µM; in experiment [10], 57.6 µM.

Regarding `COc1cccc(C2c3cc4c(cc3OC(N3CCCC3)C2C)OCO4)c1O` (centres undefined), the TGI is greater than 66.2 µM in [1]; 68.3 µM in experiment [2]; greater than 83.6 µM in [3]; 20 µM in experiment [4]; 10.5 µM in experiment [5]; 18.5 µM in [6]. The TGI in [7] was 34.9 µM; in experiment [8], 46.7 µM; in experiment [9], 42 µM; in experiment [10] it was greater than 84.9 µM.

As for `COc1ccc(OC)c2c1[nH]c(=O)c1c3ncccc3cn21`, the GI50 in experiment [1] is 1.8 µM; in [2], 3.23 µM; in [3], 2.17 µM; in experiment [4] it was 4.71 µM; in [5], 2.79 µM; in experiment [6], 5.37 µM. Also, the GI50 in experiment [7] was 3.58 µM; in [8] it was 2.49 µM; in [9] it was 2.53 µM; in [10], 4.91 µM. The TGI in experiment [1] was 4.29 µM; in experiment [2] it was greater than 100 µM; in experiment [3] it was 27.3 µM; in [4], greater than 100 µM; in experiment [5], greater than 100 µM; in experiment [6], greater than 100 µM. For the same molecule, the TGI in experiment [7], in experiment [8], in [9] and in [10] was greater than 100 µM in each case.

Regarding `Cc1cc(C)c(Cn2cnc3c(Cl)ncnc32)c(C)c1CCl`, the GI50 in experiment [1] is 0.652 µM; in experiment [3], 30.5 µM; in experiment [4] it was greater than 100 µM; in experiment [5], 79.1 µM; in experiment [6] it was greater than 100 µM; in experiment [7], 90.7 µM. Besides, the GI50 in [8], in [9] and in [10] was greater than 100 µM each time. Also, the TGI is 8.69 µM in experiment [1]; greater than 100 µM in [3]; greater than 100 µM in experiment [4]; greater than 100 µM in experiment [5]; greater than 100 µM in [6]; greater than 100 µM in experiment [7]. Moreover, the TGI in experiment [8], in experiment [9] and in experiment [10] was greater than 100 µM in each case.
